US11827628B2, “Compositions and methods for inhibition of the JAK pathway” (Rigel Pharmaceuticals, Inc., priority 2005, dated 2023)

The molecules below were run on IL-4 stimulated expression of CD23 in human Ramos B cells (JAK-1 and JAK-3) (assay: Assay for Ramos B-Cell Line Stimulated with IL-4 (CD23 upregulation, FACS)). Conditions: Ramos B-cell line stimulated with IL-4; CD23 expression by FACS; read-out: IC50, Example 41.
Type: cell-based
Outline: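 Human Ramos B cells (5×10^4 per point, RPMI 5% serum) pre-incubated 1 h at 37 °C with compound or DMSO, then stimulated with IL-4 at 50 units/mL final for 20-24 h. CD23 upregulation measured by anti-CD23-PE staining and flow cytometry; IC50 derived.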

Structure (SMILES) | IC50 [nM]
Cc1cc(Nc2nc(Nc3cccc(S(N)(=O)=O)c3)ncc2F)ccc1OC(C)C#N (racemic) [Compound I-61, Racemic N2-(3-Aminosulfonyl)phenyl-N4-[4-(1-cyano)ethoxy-3-methyl]phenyl-5-fluoro-2,4-pyrimidinediamine] | 45.9
Cc1cnc(Nc2ccc(S(N)(=O)=O)cc2)nc1Nc1ccc(OCC#N)cc1 [Compound I-57, N2-(4-Aminosulfonylphenyl)-N4-(4-cyanomethoxyphenyl-5)-methyl-2,4-pyrimidinediamine] | 21.6
Cc1cc(Nc2nc(Nc3ccc(F)c(S(N)(=O)=O)c3)ncc2F)ccc1OCC#N [Compound I-34, N2-(3-Aminosulfonyl-4-fluoro)phenyl-N4-(4-cyanomethoxy-3-methyl)phenyl-5-fluoro-2,4-pyrimidinediamine] | 62.3
CC(C#N)Oc1ccc(Nc2nc(Nc3cccc(S(N)(=O)=O)c3)ncc2F)cc1 (racemic) [Compound I-65, Racemic N2-(3-Aminosulfonyl)phenyl-N4-[4-(1-cyano)ethoxy]phenyl-5-fluoro-2,4-pyrimidinediamine] | 96.5
CC(C#N)Oc1ccc(Nc2nc(Nc3ccc(S(N)(=O)=O)cc3)ncc2F)cc1 (racemic) [Compound I-66, Racemic N2-(4-Aminosulfonyl)phenyl-N4-[4-(1-cyano)ethoxy]phenyl-5-fluoro-2,4-pyrimidinediamine] | 103
Cc1ccc(Nc2ncc(F)c(Nc3ccc(OCC#N)cc3)n2)cc1S(=O)(=O)NC(=O)C(C)C [Compound I-37, N4-(4-Cyanomethyleneoxy)phenyl-5-fluoro-N2-(3-isobutyrylaminosulfonyl-4-methyl)phenyl-2,4-pyrimidinediamine] | 499

Second part, the molecule after the results:

IC50 [nM] | Structure (SMILES)
98.7 | CNS(=O)(=O)c1cc(Nc2ncc(F)c(Nc3ccc(Cn4ccnc4)cc3)n2)ccc1C [III-83, 5-Fluoro-N2-[3-(N-methylaminosulfony)-4-methylphenyl]-5-fluoro-N4-[4-(1-imidazolylmethyl)phenyl]-2,4-pyrimidinediamine]
345 | Cc1ccc(Nc2ncc(F)c(Nc3ccc(OCC(N)=O)cc3)n2)cc1S(N)(=O)=O [Compound I-94, N4-(4-Aminocarbonylmethoxy)phenyl-N2-(3-aminosulfonyl-4-methyl)phenyl-5-fluoro-2,4-pyrimidinediamine]
275 | CNS(=O)(=O)c1cc(Nc2ncc(F)c(NCCc3ccc(-c4ccncc4)cc3)n2)ccc1C [III-78, 5-Fluoro-N2-[3-N-(methyl)aminosulfonyl-4-methylphenyl]-N4-[4-(4-pyridinyl)phenethyl]-2,4-pyrimidinediamine]
199 | CC(C)(C#N)Oc1ccc(Nc2nc(Nc3ccc(S(N)(=O)=O)cc3)ncc2F)cc1 [Compound I-75, N2-(4-Aminosulfonyl)phenyl-N4-[4-(1-cyano-1-methyl)ethoxy]phenyl-5-fluoro-2,4-pyrimidinediamine]
166 | Cc1cc(Nc2nc(Nc3cccc(S(N)(=O)=O)c3)ncc2F)ccc1OCC(N)=O [Compound I-92, N4-(4-Aminocarbonylmethoxy-3-methyl)phenyl-N2-(3-aminosulfonyl)phenyl-5-fluoro-2,4-pyrimidinediamine]
118 | Cc1cc(Nc2nc(Nc3ccc(C)c(S(N)(=O)=O)c3)ncc2F)ccc1OCC(N)=O [Compound I-95, N4-(4-Aminocarbonylmethoxy-3-methyl)phenyl-N2-(3-aminosulfonyl-4-methyl)phenyl-5-fluoro-2,4-pyrimidinediamine]
401 | Cc1ccc(Nc2ncc(F)c(Nc3cccc(OCC(N)=O)c3)n2)cc1S(N)(=O)=O [Compound I-90, N4-(3-Aminocarbonylmethoxy)phenyl-N2-(3-aminosulfonyl-4-methyl)phenyl-5-fluoro-2,4-pyrimidinediamine]
